Laboratory results from patent US7345079B2, “Treatment of disorder related to low cyclic GMP levels” (Yung Shin Pharmaceuticals Industrial Co., Ltd, priority 2001, dated 2008).

Columns and labels:
PDE 5 = biological target: T1, PDE 5 (Homo sapiens, UniProt O76074); assay: Inhibition of PDE 5 (human platelet lysate, cGMP hydrolysis); assay type: biochemical; conditions: PDE 5 from washed human platelet supernatant; 10 μM cGMP; 37° C. 30 minutes; read-out: IC50 in inhibiting PDE 5
T1 construct: Washed human platelets were prepared by the method described in Teng et al; from tissue; host or cells: human platelets (sonicated lysate, 39,000×g supernatant)
Experimental: A suitable in vitro assay can be used to preliminarily evaluate the effect of a fused pyrazolyl compound on inhibiting a PDE, which hydrolyzes cGMP. For example, platelets are washed, suspended in a buffer, and disrupted by sonication to obtain a solution containing a PDE. A compound to be tested and cGMP (a substrate for the PDE) are added to the solution. Ophiophagus hannah snake venom is subsequently added to remove the phosphate in 5′-GMP (converted from cGMP by the PDE) to form uncharged guanosine. An ion-exchange resin is used to remove the remaining cGMP. The cGMP-free solution is then centrifuged, and an aliquot of the supernatant is taken for quantification of the uncharged guanosine in a liquid scintillation counter. Activity of the PDE is evaluated based on the amount of the uncharged guanosine. In vivo screening can be performed by following procedures well known in the art.
Washed human platelets were prepared by the method described in Teng et al. Biochem. Biophys. Acta. 1989, 990, 315-320, suspended in 50 mM pH 7.4 Tris-HCl buffer (containing 5 mM MgCl2), and then disrupted by sonication at 4° C. […] The cGMP-free solution thus obtained was then centrifuged, and 0.5 mL of the supernatant was taken for quantification of uncharged guanosine in a liquid scintillation counter.

Structure (SMILES) | IC50 (PDE 5) [µM] | melting point [°C]
COc1ccc2c(-c3ccc(CO)o3)nn(Cc3ccccc3)c2c1 [Compound 1, 1-benzyl-3-(5′-hydroxymethyl-2′-furyl)-6-methoxyindazole] | 3.5 | 109 to 110
OCc1ccc(-c2nn(Cc3ccccc3)c3cc4c(cc23)OCO4)o1 [Compound 4, 1-benzyl-3-(5′-hydroxymethyl-2′-furyl)-5,6-methylenedioxoindazole] | – | 122 to 123
